Test results: patent US20230346889A9, “TREATMENT OF ACUTE HEART FAILURE” (AnaCardio R&D AB, priority 2019, published 2023)
Entries after “also recorded” stand apart in the source; their conditions may differ.

Tested on: patients with advanced CHF and reduced EF
Experiment: Randomized double-blind placebo-controlled trial of intravenous acyl ghrelin: non-invasive hemodynamics (Innocor, Nexfin)
Type: in vivo
Excerpt: Between 17 Feb. 2013 and 19 May 2015 we conducted a prospective double-blind, placebo-controlled, parallel-group, single centre randomized clinical trial with a one-time treatment of intravenous acyl ghrelin or placebo.
Patients were pre-screened in the Karolinska University Hospital heart failure clinic (FIG. 1) and had symptoms and signs of advanced CHF (New York Heart Association [NYHA] class III-IV) and an EF of ≤40%.
Ghrelin is a 28 amino acid peptide with a molecular weight of 3,371 g/mol. Half-time in plasma is 24-30 minutes. Concentrations in normal humans has variably been reported at 100-300 pmol/L (300-900 ng/L) for total ghrelin. There is limited data on acyl ghrelin but we recently measured acyl ghrelin in 41 healthy non-obese adults: fasting: mean±SD: 118±14 ng/L, 5-95th percentile 27-328 ng/L; trough 60 minutes post 260 kcal mixed meal: 80±12 ng/L, 5-95th percentile 21-293 ng/L. Synthetic acylated (active) human ghrelin (brand name Clinalfa Ghrelin (human) Acetate, product number 4071265; Bachem, Hauptstrasse 144, 4416 Bubendorf, Switzerland—hereafter referred to as ghrelin, was purchased from Bachem (Bubendorf, Switzerland) under license from Daiichi Sankyo (Tokyo, Japan). For each patient and treatment, a stock solution was prepared consisting of multiple vials of powder ghrelin (100 μg ghrelin/vial together with phosphate buffer), each vial dissolved in 1 mL sterile water for infusion (B. Braun, Germany) and visually inspected to be a clear and colorless solution, prior to adding 0.001 g (0.02 ml of 50 g/L stock) human albumin (for concentration 0.001 g/mL=0.1%) to each vial and further mixed with normal saline (NaCl 9 mg/ml, B. Braun, Germany). The proportion of stock solution and saline were according to patient weight (Table 2), resulting in a total volume of 100 mL (to ensure the same volume infusion for all patients). The final intravenous infusion rate was 0.50 mL/min volume (total volume 60 mL), equivalent to 0.1 μg (30 pmol)/kg/min (total amount 12.0 μg/kg) of acyl ghrelin administered to all patients randomized to ghrelin. The infusion was given for 120 minutes and continued until all measurements at 120 minutes had been completed (thus delivering some additional ghrelin). The median total infusion duration was 171 minutes. Measurements were repeated 30 minutes after stopping infusion.
Patients were randomized in parallel by block randomization in groups of 4 using paper envelopes to ghrelin or placebo and the infusion was given by antecubital vein over 120 minutes. A dedicated study nurse prepared ghrelin and placebo for infusion and patients and all other investigators were blinded. Immediately prior to, during, and after the 120 minute infusion and also 30 minutes after stopping the infusion, blood samples were drawn and symptoms, signs, echocardiography, ECG, and non-invasive hemodynamics were assessed (FIG. 2). Patients were discharged to home and returned 2-5 days later for repeat measurements. Patients were followed prospectively for morbidity and mortality outcomes.
Non-invasive resting CO in was assessed in duplicate at each measurement using the Innocor® device (Innovision, Odense, Denmark). The Innocor is a non-invasive device that measures pulmonary blood flow using an inert gas rebreathing technique, and measures VO2 directly. It has been validated for CO and VO2 at rest and exercise (Gabrielsen et al., 2002; Stahlberg et al., 2009).
The Innocor® directly measures pulmonary blood flow, VO2 and SpO2. From these variables, shunt fraction, cardiac output, SVO2 and A-V O2 difference was then calculated using standard formulas. Beat-by-beat ECG, blood pressure and the first derivative of the pressure signal (+dP/dt) were measured using a Nexfin® device (described below). Fifteen minutes of continuous beat-by-beat Nexfin data were averaged at the time of Innocor measurements. Estimated systemic vascular resistance (eSVR) was subsequently calculated as mean blood pressure/cardiac output×80. […]

CCCCCCCC(=O)OC[C@H](NC(=O)[C@H](CO)NC(=O)CN)C(=O)N[C@@H](Cc1ccccc1)C(=O)N[C@@H](CC(C)C)C(=O)N[C@@H](CO)C(=O)N1CCC[C@H]1C(=O)N[C@@H](CCC(=O)O)C(=O)N[C@@H](Cc1cnc[nH]1)C(=O)N[C@@H](CCC(N)=O)C(=O)N[C@@H](CCCNC(=N)N)C(=O)N[C@H](C(=O)N[C@@H](CCC(N)=O)C(=O)N[C@@H](CCC(N)=O)C(=O)N[C@@H](CCCNC(=N)N)C(=O)N[C@@H](CCCCN)C(=O)N[C@@H](CCC(=O)O)C(=O)N[C@@H](CO)C(=O)N[C@@H](CCCCN)C(=O)N[C@@H](CCCCN)C(=O)N1CCC[C@H]1C(=O)N1CCC[C@H]1C(=O)N[C@@H](C)C(=O)N[C@@H](CCCCN)C(=O)N[C@@H](CC(C)C)C(=O)N[C@@H](CCC(N)=O)C(=O)N1CCC[C@H]1C(=O)N[C@@H](CCCNC(=N)N)C(=O)O)C(C)C [Ghrelin]
A-V O2-diff (2-5 day follow-up visit): 27.4 ± 10.0 % | CO (2-5 day follow-up visit): 4.21 ± 1.27 L/min | HR (2-5 day follow-up visit): 71.6 ± 10.8 bpm | PBF (2-5 day follow-up visit): 3.58 ± 0.74 L/min | SV (2-5 day follow-up visit): 59.9 ± 18.5 mL | Shunt (2-5 day follow-up visit): 15.7 ± 16.7% | SpO2 (2-5 day follow-up visit): 94.0 ± 3.9+ % | SvO2 (2-5 day follow-up visit): 66.4 ± 18.4 % | VO2 (2-5 day follow-up visit): 0.22 ± 0.06 L/min | CO compared to placebo group (2-5 days follow-up): still a significant increase in CO | A-V O2 diff (30 min after stop Infusion): 21.6 ± 12.1% | CO (30 min after stop Infusion): 4.94 ± 1.70 L/min | PBF (30 min after stop Infusion): 4.14 ± 0.97 L/min | SV (30 min after stop Infusion): 74.31 ± 26.09 mL | Shunt (30 min after stop Infusion): 12.6 ± 14.3% | SpO2 (30 min after stop Infusion): 94.7 ± 3.9% | SvO2 (30 min after stop Infusion): 73.3 ± 12.8% | VO2 (30 min after stop Infusion): 0.19 ± 0.08 L/min | dBP (30 min after stop Infusion): 58.9 ± 7.5 mmHg | dP/dt (30 min after stop Infusion): 602 ± 252 mmHg/s | mBP (30 min after stop Infusion): 75.5 ± 12.0 mmHg | sBP (30 min after stop Infusion): 105.7 ± 20.5 mmHg | A-V O2 diff (Baseline): 27.6 ± 14.3% | CO (Baseline): 4.08 ± 1.15 L/min | PBF (Baseline): 3.61 ± 0.70 L/min | SV (Baseline): 59.10 ± 17.82 mL | Shunt (Baseline): 9.9 ± 10.6% | SpO2 (Baseline): 95.2 ± 3.4% | SvO2 (Baseline): 67.9 ± 14.4% | VO2 (Baseline): 0.20 ± 0.07 L/min | dBP (Baseline): 58.6 ± 8.4 mmHg | dP/dt (Baseline): 742 ± 267 mmHg/s | mBP (Baseline): 74.9 ± 11.3 mmHg | sBP (Baseline): 104.7 ± 18.4 mmHg | A-V O2-diff (Baseline (Table 8)): 24.4 ± 7.6% | CO (Baseline (Table 8)): 4.08 ± 1.15 L/min | HR (Baseline (Table 8)): 69.6 ± 9.1 bpm | PBF (Baseline (Table 8)): 3.61 ± 0.70 L/min | SV (Baseline (Table 8)): 59.9 ± 19.0 mL | Shunt (Baseline (Table 8)): 9.9 ± 10.6% | SpO2 (Baseline (Table 8)): 95.2 ± 3.4% | SvO2 (Baseline (Table 8)): 67.7 ± 14.3% | VO2 (Baseline (Table 8)): 0.2 ± 0.07 L/min | A-V O2 diff (Infusion + 60 min): 23.6 ± 12.9 % | CO (Infusion + 60 min): 4.64 ± 1.31 L/min | PBF (Infusion + 60 min): 3.76 ± 0.76 L/min | SV (Infusion + 60 min): 69.64 ± 22.75 mL | Shunt (Infusion + 60 min): 16.8 ± 11.8 % | SpO2 (Infusion + 60 min): 93.5 ± 3.5 % | SvO2 (Infusion + 60 min): 70.0 ± 13.8% | VO2 (Infusion + 60 min): 0.19 ± 0.07 L/min | dBP (Infusion + 60 min): 56.5 ± 8.7 mmHg | dP/dt (Infusion + 60 min): 535 ± 213 mmHg/s | mBP (Infusion + 60 min): 71.4 ± 10.2 mmHg | sBP (Infusion + 60 min): 99.0 ± 17.6 mmHg | A-V O2 diff (Infusion + 120 min): 20.9 ± 8.5 % | CO (Infusion + 120 min): 5.23 ± 1.98 L/min | PBF (Infusion + 120 min): 4.08 ± 0.90 L/min | SV (Infusion + 120 min): 79.83 ± 30.30 mL | Shunt (Infusion + 120 min): 18.0 ± 12.3 % | SpO2 (Infusion + 120 min): 93.4 ± 3.6 % | SvO2 (Infusion + 120 min): 71.7 ± 10.1% | VO2 (Infusion + 120 min): 0.19 ± 0.08 L/min | dBP (Infusion + 120 min): 56.1 ± 10.3 mmHg | dP/dt (Infusion + 120 min): 531 ± 191 mmHg/s | mBP (Infusion + 120 min): 70.9 ± 13.1 mmHg | sBP (Infusion + 120 min): 99.0 ± 21.1 mmHg | change in HR (between baseline and 120 minutes): fell slightly | change in calculated SV (during and after infusion): increased with infusion and fell after stop of infusion | change in systolic, diastolic and mean arterial blood pressure (during and after infusion): no changes or differences in changes; also recorded: no changes in blood pressure; also recorded: no effect | change in CO (during and after infusion, primary outcome): increased with infusion and fell after stop of infusion | change in oxygen consumption (VO2) (in vivo): no change | change in pulmonary blood flow (in vivo): increased | change in estimated SVR (with infusion): fell and decrease
